Test results from US9523097B2, “Engineering rubber production in plants” (The United States of America, as represented by the …, priority 2013, dated 2016).
Where two headings read alike, the source gives them in different places.

Columns and labels:
guayule explants = details: for Size of Callus with multi shoots: 5-point scale
Description: To evaluate the effect of calcium nitrate on guayule regeneration, guayule explants were cultured on MS basal medium with plant growth regulators (PGRs) (1.0 mg·L^−1 BA and 0.1 mg·L^−1 NAA) and calcium nitrate. […] calcium nitrate concentrations, 0, 100, 250, 500, 750, 1000 and 1500 mg·L^−1, were tested (Table 3). Calcium nitrate was added to the culture medium before adjusting the pH to 5.7, prior to autoclaving. DKW basal medium (0.75 mg·L^−1 BA and 0.25 mg·L^−1 NAA) was used as a control.

guayule leaf explants = experiment: Resistance of regenerated shoot on media with spectinomycin; format: cell-based, Parthenium argentatum
Description: To confirm whether the guayule explants were resistant to spectinomycin, leaf explants from control plants were cultured on regeneration DKW media that contained 0.75 mg·L^−1 BA and 0.125 mg·L^−1 NAA at various spectinomycin antibiotic levels. Several concentration of spectinomycin (0, 2, 4, 6, 8, 10, 12, 14, 16, 18 and 20 mg·L^−1) was added to the media to confirm the effects of antibiotic concentration on regeneration.

With `O.O.O.O.O=[N+]([O-])[O-].O=[N+]([O-])[O-].[Ca+2]` [Calcium Nitrate, calcium nitrate tetrahydrate] as the compound, how does the “Size of Callus with multi shoots” value (guayule explants; 100 mg·L−1, DKW with 0.75 mg·L−1 BA and 0.25 mg·L−1 NAA) read?
The value was 3.0b.

What about the “Number of elongated shoots” value (guayule explants; 100 mg·L−1, DKW with 0.75 mg·L−1 BA and 0.25 mg·L−1 NAA, per total explants) of the same compound?
Its value is 6/30.

What about the “Size of Callus with multi shoots” value (guayule explants; 100 mg·L−1, MS with 1.0 mg·L−1 BA and 0.1 mg·L−1 NAA) of the same compound?
The value was 4.5a.

What about the “Number of elongated shoots” value (guayule explants; 100 mg·L−1, MS with 1.0 mg·L−1 BA and 0.1 mg·L−1 NAA, per total explants) of the same compound?
The value was 3/30.

What about the “Size of Callus with multi shoots” value (guayule explants; 250 mg·L−1, DKW with BA/NAA) of the same compound?
The value was 2.9b.

And the “Number of elongated shoots” value (guayule explants; 250 mg·L−1, DKW with BA/NAA, per total explants)?
The value was 3/30.

What about the “Size of Callus with multi shoots” value (guayule explants; 250 mg·L−1, MS with BA/NAA) of the same compound?
The value was 4.4a.

What about the “Number of elongated shoots” value (guayule explants; 250 mg·L−1, MS with BA/NAA, per total explants) of the same compound?
The value was 13/30.

And the “Size of Callus with multi shoots” value (guayule explants; 500 mg·L−1, DKW with BA/NAA)?
Its value is 2.2bc.

And the “Number of elongated shoots” value (guayule explants; 500 mg·L−1, DKW with BA/NAA, per total explants)?
The value was 0/30.

And the “Size of Callus with multi shoots” value (guayule explants; 500 mg·L−1, MS with BA/NAA)?
The value was 4.1ab.

What about the “Number of elongated shoots” value (guayule explants; 500 mg·L−1, MS with BA/NAA, per total explants) of the same compound?
Its value is 6/30.

And the “Size of Callus with multi shoots” value (guayule explants; 1000 mg·L−1, DKW with BA/NAA)?
Its value is 2.0c.

What about the “Number of elongated shoots” value (guayule explants; 1000 mg·L−1, DKW with BA/NAA, per total explants) of the same compound?
The value was 0/30.

And the “Size of Callus with multi shoots” value (guayule explants; 1000 mg·L−1, MS with BA/NAA)?
Its value is 3.6c.

What about the “Number of elongated shoots” value (guayule explants; 1000 mg·L−1, MS with BA/NAA, per total explants) of the same compound?
Its value is 0/30.

And the “Size of Callus with multi shoots” value (guayule explants; 1500 mg·L−1, DKW with BA/NAA)?
The value was 1.7 days.

What about the “Number of elongated shoots” value (guayule explants; 1500 mg·L−1, DKW with BA/NAA, per total explants) of the same compound?
Its value is 0/30.

And the “Size of Callus with multi shoots” value (guayule explants; 1500 mg·L−1, MS with BA/NAA)?
Its value is 2.1 days.

And the “Number of elongated shoots” value (guayule explants; 1500 mg·L−1, MS with BA/NAA, per total explants)?
The value was 0/30.

What about the “effect on elongated shoots” value (guayule explants; higher concentrations) of the same compound?
The value was “negative effect”.

What about the “Number of elongated shoots” value (guayule explants; moderate concentrations (0, 100, 250, 500 and 1000 mg·L−1), MS and DKW medium) of the same compound?
Its value is “significantly improved”.

Which “concentration fatal to guayule plants” value (guayule leaf explants) does the source give for `CN[C@@H]1[C@H](O)[C@H](NC)[C@H]2O[C@@]3(O)C(=O)C[C@@H](C)O[C@H]3O[C@@H]2[C@H]1O` [spectinomycin] here?
The value was “about 12 mg/L”.

And the “Callus formation and shoot emergence” value (guayule leaf explants; 8 mg·L−1, DKW regeneration medium)?
Its value is “not affected”.

What about the “Callus formation and shoot emergence” value (guayule leaf explants; 10 mg·L−1, DKW regeneration medium) of the same compound?
The value was “significantly reduced”.

What about the “Callus formation and shoot emergence” value (guayule leaf explants; 12 mg·L−1 or higher, DKW regeneration medium) of the same compound?
Its value is “completely inhibited”.
